ChEMBL document CHEMBL1909046, “DrugMatrix in vitro pharmacology data”

How the values were obtained:
Acetylcholinesterase = Acetylcholinesterase (Homo sapiens, UniProt P22303); assay: DRUGMATRIX: Acetylcholinesterase enzyme inhibition (substrate: acetylthiocholine); assay type: cell-based, HEK293; conditions: hek293; Not Active = under 50% inhibition at 10 µM
Adenosine receptor A1 = target: T1, Adenosine receptor A1 (Homo sapiens, UniProt P30542); assay type: cell membranes, CHO, Membrane; conditions: cho;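 further: radioligand binding assay at the adenosine A1 receptor, with DPCPX serving as the labelled ligand; in other assays of this panel Not Active means under 50% inhibition at 10 µM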
T1 sequence (P30542 whole entry): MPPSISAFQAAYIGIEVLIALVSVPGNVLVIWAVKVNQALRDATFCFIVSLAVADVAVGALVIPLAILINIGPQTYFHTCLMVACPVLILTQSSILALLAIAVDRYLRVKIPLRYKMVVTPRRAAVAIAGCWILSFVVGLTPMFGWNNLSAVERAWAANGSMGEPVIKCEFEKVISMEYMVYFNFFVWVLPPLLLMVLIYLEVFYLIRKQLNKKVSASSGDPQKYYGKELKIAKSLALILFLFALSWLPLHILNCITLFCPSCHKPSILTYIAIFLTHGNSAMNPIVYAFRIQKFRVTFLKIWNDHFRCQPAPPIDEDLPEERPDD

Calcitonin receptor = target: T2, Calcitonin receptor (Homo sapiens, UniProt P30988); assay type: cell membranes, Membrane; conditions: t47d; further: in other assays of this panel Not Active means under 50% inhibition at 10 µM
T2 sequence (P30988 whole entry): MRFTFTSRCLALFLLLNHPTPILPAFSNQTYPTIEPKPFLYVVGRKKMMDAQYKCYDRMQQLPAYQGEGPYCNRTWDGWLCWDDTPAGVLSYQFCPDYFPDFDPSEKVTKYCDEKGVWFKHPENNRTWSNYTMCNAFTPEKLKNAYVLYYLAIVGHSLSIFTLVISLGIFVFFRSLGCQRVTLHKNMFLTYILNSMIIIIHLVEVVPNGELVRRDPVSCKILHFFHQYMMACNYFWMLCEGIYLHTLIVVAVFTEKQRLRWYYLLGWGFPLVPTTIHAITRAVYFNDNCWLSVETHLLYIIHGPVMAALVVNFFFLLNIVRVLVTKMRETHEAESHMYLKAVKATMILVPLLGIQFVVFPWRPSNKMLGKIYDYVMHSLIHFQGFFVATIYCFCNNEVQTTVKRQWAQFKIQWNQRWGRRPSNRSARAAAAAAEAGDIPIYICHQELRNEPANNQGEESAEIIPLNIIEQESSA

[1] = target: Beta-1 adrenergic receptor (Homo sapiens, UniProt P08588); assay: DRUGMATRIX: Adrenergic beta1 radioligand binding (ligand: [125I] Cyanopindolol); assay type: cell membranes, CHO-K1, Membrane; conditions: Not Active = under 50% inhibition at 10 µM
Chain of Beta-1 adrenergic receptor (P08588 whole entry): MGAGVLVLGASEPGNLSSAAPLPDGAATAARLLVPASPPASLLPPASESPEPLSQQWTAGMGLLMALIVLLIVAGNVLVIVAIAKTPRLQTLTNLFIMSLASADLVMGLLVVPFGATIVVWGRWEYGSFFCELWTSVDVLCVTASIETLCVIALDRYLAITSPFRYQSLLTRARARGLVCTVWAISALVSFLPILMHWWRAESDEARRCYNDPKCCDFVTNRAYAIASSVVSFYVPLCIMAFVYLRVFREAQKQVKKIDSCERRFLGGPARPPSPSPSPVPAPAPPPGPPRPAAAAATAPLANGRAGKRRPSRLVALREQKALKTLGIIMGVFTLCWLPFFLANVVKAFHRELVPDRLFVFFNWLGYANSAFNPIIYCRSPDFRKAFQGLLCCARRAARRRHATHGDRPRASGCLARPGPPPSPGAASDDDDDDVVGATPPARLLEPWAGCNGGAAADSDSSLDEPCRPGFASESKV

Cathepsin G = target: T3, Cathepsin G (Homo sapiens, UniProt P08311); assay type: tissue-based; conditions: neutrophil;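 further: inhibition of Cathepsin G enzyme activity, tested on an AMC-conjugated peptide substrate; in other assays of this panel Not Active means under 50% inhibition at 10 µM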
T3 sequence (P08311 whole entry): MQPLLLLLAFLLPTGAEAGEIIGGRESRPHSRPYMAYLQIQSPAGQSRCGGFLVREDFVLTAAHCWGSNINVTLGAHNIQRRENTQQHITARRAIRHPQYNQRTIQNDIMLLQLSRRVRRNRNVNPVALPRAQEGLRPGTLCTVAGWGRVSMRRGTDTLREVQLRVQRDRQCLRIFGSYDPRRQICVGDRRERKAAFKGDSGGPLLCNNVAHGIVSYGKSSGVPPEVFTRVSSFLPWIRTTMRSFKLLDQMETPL

Endothelin-1 receptor = target: T4, Endothelin-1 receptor (Homo sapiens, UniProt P25101); assay type: cell membranes, Membrane; conditions: cho-k1; further: in other assays of this panel Not Active means under 50% inhibition at 10 µM
T4 sequence (P25101 whole entry): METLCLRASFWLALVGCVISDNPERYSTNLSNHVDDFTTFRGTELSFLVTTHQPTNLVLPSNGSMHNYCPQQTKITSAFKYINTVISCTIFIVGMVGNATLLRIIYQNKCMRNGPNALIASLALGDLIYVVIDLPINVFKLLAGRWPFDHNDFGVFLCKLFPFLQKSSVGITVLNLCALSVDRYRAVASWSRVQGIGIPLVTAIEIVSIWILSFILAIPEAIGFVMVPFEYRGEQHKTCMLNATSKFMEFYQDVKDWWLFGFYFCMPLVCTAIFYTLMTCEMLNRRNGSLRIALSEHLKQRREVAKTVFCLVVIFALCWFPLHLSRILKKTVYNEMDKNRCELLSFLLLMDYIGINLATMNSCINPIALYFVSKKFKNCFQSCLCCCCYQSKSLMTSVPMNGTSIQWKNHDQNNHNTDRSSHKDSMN

[2] = target: T5, Muscarinic acetylcholine receptor M4 (Homo sapiens, UniProt P08173); assay type: cell membranes, CHO-K1, Membrane; conditions: for Ki: read-out: Ki
T5 sequence (P08173 whole entry): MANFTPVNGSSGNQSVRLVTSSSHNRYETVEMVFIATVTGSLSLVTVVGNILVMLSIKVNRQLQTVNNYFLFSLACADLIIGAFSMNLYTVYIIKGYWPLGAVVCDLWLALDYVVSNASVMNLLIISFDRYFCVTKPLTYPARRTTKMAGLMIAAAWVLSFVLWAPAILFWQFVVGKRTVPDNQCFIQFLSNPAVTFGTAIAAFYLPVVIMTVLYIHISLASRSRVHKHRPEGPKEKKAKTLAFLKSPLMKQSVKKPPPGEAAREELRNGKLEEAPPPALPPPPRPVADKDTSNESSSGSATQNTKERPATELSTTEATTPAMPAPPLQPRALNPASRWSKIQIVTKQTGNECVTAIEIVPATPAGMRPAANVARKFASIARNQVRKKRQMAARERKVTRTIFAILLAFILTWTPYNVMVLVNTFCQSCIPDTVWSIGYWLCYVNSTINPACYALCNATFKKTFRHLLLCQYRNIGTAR

Chain of Acetylcholinesterase (P22303 whole entry): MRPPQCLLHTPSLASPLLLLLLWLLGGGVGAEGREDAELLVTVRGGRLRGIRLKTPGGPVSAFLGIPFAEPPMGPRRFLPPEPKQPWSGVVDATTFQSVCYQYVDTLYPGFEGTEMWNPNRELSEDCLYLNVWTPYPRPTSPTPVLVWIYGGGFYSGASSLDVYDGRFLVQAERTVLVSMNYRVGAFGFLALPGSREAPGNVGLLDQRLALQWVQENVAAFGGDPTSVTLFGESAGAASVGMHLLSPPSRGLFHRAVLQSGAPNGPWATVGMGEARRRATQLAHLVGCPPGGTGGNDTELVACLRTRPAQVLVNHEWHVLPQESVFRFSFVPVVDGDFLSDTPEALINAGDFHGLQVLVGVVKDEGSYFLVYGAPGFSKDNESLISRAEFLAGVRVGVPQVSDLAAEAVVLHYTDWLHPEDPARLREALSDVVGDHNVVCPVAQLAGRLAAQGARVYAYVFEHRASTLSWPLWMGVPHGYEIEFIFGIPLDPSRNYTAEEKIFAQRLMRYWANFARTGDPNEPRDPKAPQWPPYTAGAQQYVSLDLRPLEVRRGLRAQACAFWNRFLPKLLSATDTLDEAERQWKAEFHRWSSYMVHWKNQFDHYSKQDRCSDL

| Compound | IC50 (Acetylcholinesterase) | IC50 (Adenosine receptor A1) | IC50 (Calcitonin receptor) | IC50 ([1]; cho-k1) | IC50 (Cathepsin G) | IC50 (Endothelin-1 receptor) | IC50 ([2]; cho-k1) | IC50 ([2]; read-out: IC50) [nM] | Ki [2] [nM] | IC50 ([1]; read-out: IC50) [nM] | Ki ([1]; read-out: Ki) [nM] |
| --- | --- | --- | --- | --- | --- | --- | --- | --- | --- | --- | --- |
| O=C(O)c1cc(-c2ccc(F)cc2F)ccc1O [DIFLUNISAL] | Not Active | Not Active | Not Active | Not Active | Not Active | Not Active | Not Active |  |  |  |  |
| CCn1cc(C(=O)O)c(=O)c2cc(F)c(N3CCNC(C)C3)c(F)c21 (stereo not drawn) [LOMEFLOXACIN] | Not Active | Not Active | Not Active | Not Active | Not Active | Not Active | Not Active |  |  |  |  |
| CN(C)C(=O)Oc1cccc([N+](C)(C)C)c1.[Br-] [NEOSTIGMINE BROMIDE] |  | Not Active | Not Active | Not Active | Not Active | Not Active | Not Active |  |  |  |  |
| CN1CCCC(CN2c3ccccc3Sc3ccccc32)C1 (stereo not drawn) [MEPAZINE] | Not Active | Not Active | Not Active | Not Active | Not Active | Not Active |  | 137 | 19 |  |  |
| ClC(Cl)(Cl)Cl [CARBON TETRACHLORIDE] | Not Active | Not Active | Not Active | Not Active | Not Active | Not Active | Not Active |  |  |  |  |
| CCN(CC)CCCC(C)Nc1c2ccc(Cl)cc2nc2ccc(OC)cc12 (stereo not drawn) [QUINACRINE] |  | Not Active | Not Active | Not Active | Not Active | Not Active |  | 1980 | 277 |  |  |
| CC[C@H]1[C@@H]2C[C@H]3[C@@H]4N(C)c5ccccc5[C@]45C[C@@H]([C@@H]2[C@H]5O)N3[C@@H]1O [AJMALINE] | Not Active | Not Active | Not Active | Not Active | Not Active | Not Active | Not Active |  |  |  |  |
| C[C@H]1[C@H](NC(=O)/C(=N\OC(C)(C)C(=O)O)c2csc(N)n2)C(=O)N1S(=O)(=O)O [AZTREONAM] | Not Active | Not Active | Not Active | Not Active | Not Active | Not Active | Not Active |  |  |  |  |
| CO/N=C(\C(=O)N[C@@H]1C(=O)N2C(C(=O)O)=C(COC(C)=O)CS[C@H]12)c1csc(N)n1 [CEFOTAXIME] | Not Active | Not Active | Not Active | Not Active | Not Active | Not Active | Not Active |  |  |  |  |
| CC(C)c1c(C(=O)Nc2ccccc2)c(-c2ccccc2)c(-c2ccc(F)cc2)n1CC[C@@H](O)C[C@@H](O)CC(=O)O [ATORVASTATIN] | Not Active | Not Active | Not Active | Not Active | Not Active | Not Active | Not Active |  |  |  |  |
| CC(C)C[C@H]1C(=O)N2CCC[C@H]2[C@]2(O)O[C@](NC(=O)[C@@H]3C=C4c5cccc6[nH]cc(c56)C[C@H]4N(C)C3)(C(C)C)C(=O)N12 [ERGOCRYPTINE] | Not Active | Not Active | Not Active | Not Active | Not Active | Not Active | Not Active |  |  |  |  |
| CCN(C(C)=O)c1cccc(-c2ccnc3c(C#N)cnn23)c1 [ZALEPLON] | Not Active | Not Active | Not Active | Not Active | Not Active | Not Active | Not Active |  |  |  |  |
| N[C@@H](Cn1ccc(=O)c(O)c1)C(=O)O [L-MIMOSINE] | Not Active | Not Active | Not Active | Not Active | Not Active | Not Active | Not Active |  |  |  |  |
| Nc1cc(-c2ccncc2)c[nH]c1=O [INAMRINONE] | Not Active | Not Active | Not Active | Not Active | Not Active | Not Active | Not Active |  |  |  |  |
| NC(=O)c1cccc(N)c1 [3-AMINOBENZAMIDE] | Not Active | Not Active | Not Active | Not Active | Not Active | Not Active | Not Active |  |  |  |  |
| NC(=O)c1cccnc1 [NIACINAMIDE] | Not Active | Not Active | Not Active | Not Active | Not Active | Not Active | Not Active |  |  |  |  |
| CCC1=C(C)CN(C(=O)NCCc2ccc(S(=O)(=O)NC(=O)N[C@H]3CC[C@H](C)CC3)cc2)C1=O [GLIMEPIRIDE] | Not Active | Not Active | Not Active | Not Active | Not Active | Not Active | Not Active |  |  |  |  |
| CC(C)NCC(O)c1ccccc1Cl (stereo not drawn) [CLORPRENALINE] | Not Active | Not Active | Not Active |  | Not Active | Not Active | Not Active |  |  | 2590 | 1500 |
| CC(=O)OCC(=O)[C@@]12OC(C)(C)O[C@@H]1C[C@H]1[C@@H]3C[C@H](F)C4=CC(=O)C=C[C@]4(C)[C@@]3(F)[C@@H](O)C[C@@]12C [FLUOCINONIDE] | Not Active | Not Active | Not Active | Not Active | Not Active | Not Active | Not Active |  |  |  |  |
| COc1cccc2c1C(=O)c1c(O)c3c(c(O)c1C2=O)C[C@@](O)(C(C)=O)C[C@@H]3O[C@H]1C[C@H](N)[C@H](O)[C@H](C)O1 [DAUNORUBICIN] | Not Active | Not Active | Not Active | Not Active | Not Active | Not Active | Not Active |  |  |  |  |
| COc1ccccc1N | Not Active | Not Active | Not Active | Not Active | Not Active | Not Active | Not Active |  |  |  |  |
| Cc1c(O)cccc1C(=O)N[C@@H](CSc1ccccc1)[C@H](O)CN1C[C@H]2CCCC[C@H]2C[C@H]1C(=O)NC(C)(C)C | Not Active | Not Active | Not Active |  | Not Active | Not Active | Not Active |  |  |  |  |
| O=C(O)CC(O)(CC(=O)O)C(=O)O [CITRIC ACID] | Not Active | Not Active | Not Active |  | Not Active | Not Active | Not Active |  |  |  |  |
| Cn1c(=O)c2c(ncn2C)n(C)c1=O [CAFFEINE] | Not Active |  | Not Active | Not Active | Not Active | Not Active | Not Active |  |  |  |  |
| CN1CCC(=C2c3ccccc3CC(=O)c3sccc32)CC1 [KETOTIFEN] | Not Active | Not Active | Not Active |  | Not Active | Not Active |  | 1010 | 141 |  |  |
